Measurements taken from patent US20120053076A1, “METHODS FOR IDENTIFICATION” (Cambridge Enterprise Limited, priority 2009, published 2012).

Key:
THP-1 cells = experiment: MCP-1 induced THP-1 cell migration, Transwell assay; format: cell-based, human
Method: Leukocyte migration was measured using the 96-well format micro Transwell® assay system from Neuroprobe (Gaithersburg, Md., USA). In principle, this assay consists of two chambers separated by a porous membrane. The chemoattractant is placed in the lower compartment and the cells are placed in the upper compartment.
The method was performed essentially as previously described (Reckless & Grainger (1999) Biochem. J. 340:803-11).
First, the cell suspension to be placed in the upper compartment was prepared. The THP-1 cells were pelleted by centrifugation (770×g; 4 mins) and washed with Geys Balanced Salt Solution with 1 mg/ml BSA (GBSS+BSA). This wash was then repeated, and the cells re-pelleted before being resuspended in a small volume of GBSS+BSA for counting, for example using a standard haemocytometer.
The volume of GBSS+BSA was then adjusted depending on the number of cells present so that the cells were at final density of 4.45×10^6 cells per ml of GBSS+BSA. This ensured that there were 100,000 THP-1 cells in each 25 μl of the solution to be placed in the upper chamber of the plate.
The suspension of THP-1 cells at 4.45×10^6 cells/ml was divided into three pots. […] To the second pot, the BSCI was added at the same concentration as in the first pot, but additionally the sstr2 antagonist was also added (for example BIM 23454 [Tulipano et al. (2002) 143:1218-24] or BIM 23627 were added at 66 nM final concentration from a stock solution in GBSS). To the third pot, GBSS+BSA plus vehicle as appropriate was added so that the volumes in three pots are equal, acting as a control.
Next, the chemoattractant solution to be placed in the lower compartment was prepared. MCP-1 was diluted in GBSS+BSA to give a final concentration of 25 ng/ml (after all additions). Note that, as recommended by Frow et al (Med. Res. Rev. 24:276-98) this is the concentration of MCP-1 which induces maximal migration in this system. This solution was divided into three pots, as for the cell suspension. To one pot, the BSCI was added to the same final concentration as was added to the cell suspension, in the second pot the BSCI and the sstr2 antagonist were both added at the same concentration as previously added to the cell suspension, while to the remaining pot GBSS+BSA plus vehicle as appropriate was added so that the volumes in the three pots were equal.
Once the chemoattractant solutions for the lower wells and cell solutions for the upper chambers were prepared, the migration chamber was assembled. 29 μl of the appropriate chemoattractant solution was placed into the lower well of the chamber. Assays were performed with at least triplicate determinations of each condition. Once all the lower chambers were filled, the porous membrane was applied to the chamber in accordance with the manufacturer's instructions. Finally, 25 μl of the appropriate cell solution was applied to each upper chamber. A plastic lid was placed over the entire apparatus to prevent evaporation.
The assembled chamber was incubated at 37° C., 5% CO2, for 2 hours.
At the end of the incubation, the liquid cell suspension was gently removed from the upper chamber, 20 μl of ice-cold 20 mM EDTA in PBS was added to the upper chamber, and the apparatus was incubated at 4° C. for 15 mins. This procedure caused any cells adhering to the underside of the membrane to fall into the lower chamber.
After this incubation the filter was carefully flushed with GBSS+BSA to wash off the EDTA, and then the filter was removed.
The number of cells migrated into the lower chamber under each condition can then be determined by a number of methods, including direct counting, labelling with fluorescent or radioactive markers or through the use of a vital dye. Typically, we utilised the vital dye MTT.

fetal rat pituicytes = experiment: Rat pituicyte GH suppression assay; format: cell-based
From the text: Two different assays for “classical” sstr2 functions were adopted: (1) cultured foetal rat pituitary cells secreted growth hormone which is inhibited by sstr2 agonists in a dose-dependent fashion and (2) selected glucose-sensitive sub-clones of the human Panc-1 cell line secrete insulin which is inhibited by sstr2 agonists in a dose-dependent fashion.
Methods: Cultures of fetal rat pituicytes were established exactly as previously described (Murray et al. (2004) J. Clin. Endocrinol. Metab. 89:3027-32) by enzymatic dispersion. After 48 hrs in low glucose DMEM plus 10% FCS, cells in 48 well plates (5×10^4 cells per well) were washed for 4 hrs in serum-free DMEM and then incubated with test agents at various concentrations for a further 24 hrs in serum-free DMEM. At the end of this period, the conditioned medium was harvested, any cell debris removed by centrifugation and assayed for GH using a commercially available ELISA (Linco; cat# EZRMGH-45K) in accordance with the manufacturer's instructions.
Results were reported as the mean±SD, expressed as the fold change from cells in the presence of vehicle only.

[1] = system: rat peripheral blood leukocytes; experiment: Rat chemokine-induced PBMC migration assay; format: cell-based; conditions: Table 3
[2] = system: TNF-alpha production in response to bacterial endotoxin; experiment: Sub-lethal endotoxemia model, serum TNF-alpha after LPS; format: in vivo; conditions: mouse, serum 2 hours after LPS
Method: We selected the sub-lethal endotoxemia model in mouse, because this has been well characterised in our laboratory (see for example Fox et al. (2002) J. Med. Chem. 45:360-70; Fox et al. (2005) J. Med. Chem. 48:867-74). The extent of systemic inflammation in response to a single intraperitoneal injection of bacterial lipopolysaccharide (LPS) can be estimated by measuring serum TNF-alpha 2 hours post challenge.
Methods: Mice (CD1 strain; adult males; 6 per group) were treated with BSCI (in an appropriate vehicle) or with vehicle alone by an appropriate route. […] Simultaneously, one set of mice at each BSCI concentration received BIM 23627 at […] by sub-cutaneous injection (a treatment condition known to suppress classical sstr2-mediated signalling, such as GH release, in rats; Tulipano et al. (2002) 143:1218-24). […]
After, a further 2 hours, the animals were sacrificed by CO2 asphyxiation, and blood was drawn by cardiac puncture. Serum was prepared by conventional methods, and the level of TNF-alpha in serum was measured using an ELISA (R&D Systems; Murine Quantikine code# MTA00) performed in accordance with the manufacturer's instructions. […]

Compound	Emax (THP-1 cells; Homo sapiens, THP-1, read-out: Human chemokine-induced THP-1 migration assay Max effect) [%]	Inhibition of MCP-1 induced THP-1 cell migration, in words (THP-1 cells; MCP-1 25 ng/ml)	Inhibition of GH release, in words (fetal rat pituicytes)	Emax ([1]; Rattus norvegicus, Leukocyte, read-out: Rat chemokine-induced PBMC migration assay Max effect) [%]	Inhibition of TNF-alpha production in response to endotoxin, in words [2]	Human chemokine-induced THP-1 migration assay Max effect (THP-1 cells; Table 3) [%]	Chemokine-induced THP-1 cell migration assay (“BSCI” target) Max Effect (THP-1 cells; Table 5) [%]	EC50 (fetal rat pituicytes; Table 3, read-out: Rat pituicyte GH suppression assay ED50) [µM]	Rat pituicyte GH suppression assay Max effect (fetal rat pituicytes; Table 3, suppression compared to vehicle) [%]	Rat chemokine-induced PBMC migration assay Max effect [1] [%]
CC(C)(C)C(=O)N[C@H]1CCCNC1=O [Valerolactam, (S)-3-(2′,2′-dimethylpropionoylamino)-tetrahydropyridin-2-one]	100	inhibits MCP-1 induced cell migration in a dose-dependent manner	inhibited GH release only at much higher concentrations	100	dramatically inhibited					
(S)-3-(2′,2′-dimethyldodecanoyl)amino-caprolactam [BN83250]			inhibited GH release only at much higher concentrations		dramatically inhibited	100	100	0.32	63	100
